According to patent US8084479B2, “Thiazole compounds and methods of use” (Amgen Inc., priority 2006, dated 2011):
pIC50: −log10 of the molar value.

target: PKBα (Homo sapiens, UniProt P31749); experiment: PKB kinase assay (P33-labeled ATP, peptide substrate, filter plate); format: biochemical; conditions: PKBα enzyme (full length or kinase domain with pleckstrin domain deleted)
Excerpt: The kinase assay for evaluating PKB activity comprises active PKB enzymes, a PKB specific substrate, and P^33-labeled ATP. […] The phosphorylated substrate was captured by a phosphocellulose membrane filter plate (MLLIPORE) and measured by a Wallac Microbeta liquid scintillation counter (Perkin Elmer).

PKBα, sequence (P31749 118-480 limits assumed): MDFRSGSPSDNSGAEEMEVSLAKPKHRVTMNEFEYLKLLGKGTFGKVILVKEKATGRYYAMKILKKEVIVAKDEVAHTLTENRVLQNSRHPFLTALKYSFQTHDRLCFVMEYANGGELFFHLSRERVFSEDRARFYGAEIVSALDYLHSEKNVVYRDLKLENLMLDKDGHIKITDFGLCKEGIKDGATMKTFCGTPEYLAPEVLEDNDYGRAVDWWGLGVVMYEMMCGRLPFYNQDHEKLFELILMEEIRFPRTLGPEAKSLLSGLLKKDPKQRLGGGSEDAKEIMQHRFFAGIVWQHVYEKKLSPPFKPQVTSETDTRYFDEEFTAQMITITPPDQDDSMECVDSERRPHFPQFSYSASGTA

pIC50	Compound
6.00 to 7.30	C[C@@H](Nc1ncc(-c2ccc3[nH]c(=O)n(C)c3c2)s1)[C@@H](N)Cc1ccc(C(F)(F)F)cc1 [Example 232, 6-(2-((2R,3S)-3-amino-4-(4-(trifluoromethyl)phenyl)butan-2-ylamino)thiazol-5-yl)-1-methyl-1H-benzo[d]imidazol-2(3H)-one]
6.00 to 7.30	CC(=O)OC[C@@H](c1ccc(C(F)(F)F)cc1)[C@H](N)CNc1ncc(-c2ccc3c(c2)CC(=O)N3)s1 [Example 248, (2S,3S)-3-amino-4-(5-(2-oxoindolin-5-yl)thiazol-2-ylamino)-2-(4-(trifluoromethyl)phenyl)butyl acetate]
5.00 to 6.00	Cc1nc(NC[C@@H](N)Cc2ccccc2)sc1-c1ccc2[nH]nc(C)c2c1 [Example 7, N—((S)-2-amino-3-phenylpropyl)-4-methyl-5-(3-methyl-1H-indazol-5-yl)thiazol-2-amine]
> 7.30	N[C@H](CNc1nc(CO)c(-c2ccc3[nH]ncc3c2)s1)Cc1ccc(C(F)(F)F)cc1 [Example 12, (2-((S)-2-amino-3-(4-(trifluoromethyl)phenyl)propylamino)-5-(1H-indazol-5-yl)thiazol-4-yl)methanol]
6.00 to 7.30	COc1cc(C[C@H](N)CNc2ncc(-c3ccc4c(c3)CNC4=O)s2)cnc1C(F)(F)F [Example 238, 5-(2-((S)-2-amino-3-(5-methoxy-6-(trifluoromethyl)pyridin-3-yl)propylamino)thiazol-5-yl)isoindolin-1-one]
> 7.30	Cn1c(=O)[nH]c2ccc(-c3cnc(NC[C@@H](N)Cc4ccc(C(F)(F)F)cc4)s3)cc21 [Example 57, 6-(2-((S)-2-amino-3-(4-(trifluoromethyl)phenyl)propylamino)thiazol-5-yl)-1-methyl-1H-benzo[d]imidazol-2(3H)-one]
6.00 to 7.30	NC(CNc1ncc(-c2ccc3[nH]c(=O)oc3c2)s1)Cc1ccc(OC(F)(F)F)cc1 (centres unmarked) [Example 187, 6-(2-(-2-amino-3-(4-(trifluoromethoxy)phenyl)propylamino)thiazol-5-yl)benzo[d]oxazol-2(3H)-one]
5.00 to 6.00	CNc1n[nH]c2ccc(-c3cnc(NC[C@@H](N)Cc4c[nH]c5ccccc45)s3)cc12 [Example 45, 5-(2-((S)-2-amino-3-(1H-indol-3-yl)propylamino)thiazol-5-yl)-N-methyl-1H-indazol-3-amine]
5.00 to 6.00	N[C@H](CNc1ncc(-c2ccc3c(c2)CC(=O)N3)s1)Cc1ccc(O)cc1 [Example 192, 5-(2-((S)-2-amino-3-(4-hydroxyphenyl)propylamino)thiazol-5-yl)indolin-2-one]
5.00 to 6.00	C[C@@H](c1ccccc1)[C@H](N)CNc1ncc(-c2ccc3c(c2)CC(=O)N3)s1 [Example 90, 5-(2-((2S,3S)-2-Amino-3-phenylbutylamino)thiazol-5-yl)indolin-2-one]
> 7.30	COc1cc(C[C@H](N)CNc2ncc(-c3ccc4[nH]c(=O)oc4c3)s2)ccc1C(F)(F)F [Example 207, 6-(2-((S)-2-amino-3-(3-methoxy-4-(trifluoromethyl)phenyl)propylamino)thiazol-5-yl)benzo[d]oxazol-2(3H)-one]
